System: BsrV
Test: in vitro BsrV racemase assay (L-Ala substrate) with muropeptides, Marfey's/HPLC
Format: biochemical, Vibrio cholerae
Settings: 4 mM L-Ala, 5 min at 37 °C, Bicarbonate buffer 50 mM pH 9, Fig. 3A; for inhibition of BsrV D-Ala production, in words: D-cycloserine 0.1 mM, tripeptide and D-Ala-D-Ala at equal concentration (amino acid, tripeptide/dipeptide), p dipeptide vs tripeptide = 0.0181, tripeptide vs M4 = 0.0027, M3R vs D-cycloserine < 0.0001
Method: For activity assays, in vitro LAA and DAAS were characterized with Marfey’s (FDAA)-derivatization in HPLC and DAAO assay (D-amino acid oxidase) performed as described. The product from a racemization reaction was derivatized with L-FDAA (1-fluoro-2-4-dinitrophenyl-5-L-alanine amide, Marfey’s reagent, Thermo Scientific). First, an equal volume of NaHCO3 0.5 M was added to the racemization reaction; then, 6 µL of this reaction was reacted with FDAA (10 mg/mL in acetone) at 80 °C for 3 min. The reaction was stopped with HCl 2 N and the samples were filtered. The products were separated with a linear gradient of triethylamine phosphate/acetonitrile in HPLC with an Aeris peptide column (250 × 4.6 mm; 3.6 μm particle size) (Phenomenex, USA) and detected at Abs.340 nm. To determine the inhibition effect of the sacculus in BsrV's activity, 35 µg of sacculi were incubated for 5 min at 37 °C with BsrV and 4 mM of L-Ala in Tris-HCl 50 mM pH 8. […] DAAO reaction was determined by coupling 10 µL of the extract into 150 µL of a reaction containing: sodium phosphate buffer 100 mM pH 7, Trigonopsis variabilis D-amino acid oxidase (DAAO) (Komarova et al., 2012) 3.6 U/ml, horseradish peroxidase 1 U/mL, o-phenylenediamine (OPD) 2 mg/mL and FAD 3 mg/ml. This two-step assay permits the quantification of H2O2 (DAAO is able to produce α-ketoacid, NH3 and H2O2 from DAA). Peroxidase reduces H2O2, […], leading to the production of 2,3–25 diaminophenazine. The reaction was incubated for 2 h at 37 °C and inactivated with HCl 3 M, giving a colorimetric product that can be measured at 492 nm. To determine the inhibition effect of muropeptides in BsrV's activity, 0.1 mM of M4 (GlcNAc-MurNAc-Ala-Glu-DAP (Diaminopimelate)-Ala), M3M (GlcNAc-MurNAc-Ala-Glu-DAP-Met), M3R (GlcNAc-MurNAc-Ala-Glu-DAP-Arg) and D-cycloserine were incubated with BsrV and 4 mM of L-Ala for 5 min at 37 °C (1/40 relation) in Bicarbonate buffer 50 mM pH 9. In the case of tripeptide and D-Ala-D-Ala, equal concentration (amino acid, tripeptide/dipeptide) was utilized.
Fig. 3 Peptidoglycan inhibits BsrV’s activity. (A) Inhibitory effect of muropeptides on BsrV activity. In vitro BsrV racemase assays with L-Ala as substrate in the presence of (see schematics): M4 (disaccharide tetrapeptide), M3M and M3R; the asterisk represents D-Met and D-Arg substitutions in the fourth position. […] P values: [dipeptide vs tripeptide] = 0.0181; [tripeptidevsM4] = 0.0027; [M4vsM3M] = 0.0003; [M4vsM3R] < 0.0003; [M3MvsM3R] = 0.2552; [M3RvsD-cycloserine] < 0.0001. (B) Inhibitory effect of peptidoglycan sacculi on BsrV activity. In vitro BsrV racemase assays with L-Ala as substrate in the presence of undigested sacculi (see schematics). Sugar rings are represented by hexagons and peptides are depicted. […]

Compound	inhibition of BsrV D-Ala production, in words	reduction in D-Ala production (% of inhibition) (0.1 mM muropeptide, Marfey's derivatization, HPLC 340 nm, vs control reaction with no inhibitor, single time point, p M4 vs M3M = 0.0003, M4 vs M3R < 0.0003, M3M vs M3R = 0.2552)
N[C@@H]1CON=C1O [D-cycloserine]	inhibit the least	
CC(=O)N[C@H]1[C@H](O[C@H]2[C@H](O[C@H](C)C(=O)N[C@@H](C)C(=O)N[C@H](CCC(=O)N[C@@H](CCC[C@@H](N)C(=O)O)C(=O)N[C@H](C)C(=O)O)C(=O)O)[C@@H](NC(C)=O)C(O)O[C@@H]2CO)O[C@H](CO)[C@@H](O)[C@@H]1O (stereo partly drawn) [M4, GlcNAc-MurNAc-Ala-Glu-DAP-Ala]		~ 20%
D-Ala-D-Ala [dipeptide]	inhibit the least	
L-Ala-D-Glu-D-Lys [tripeptide]	inhibit the least	
